In PMC12670164, “In vitro and clinical data demonstrate negligible risk of drug–drug interactions with opelconazole, a novel inhaled antifungal agent” (Journal of Antimicrobial Chemotherapy, 2025):
Converted amounts (≈) assume the structure as drawn. Like-named read-outs stand apart in the source and are kept apart here.

Columns and labels:
CYP3A4 [1] = molecular target: CYP3A4 (Homo sapiens, UniProt P08684); settings: for IC50: read-out: IC50, CYP3A4
Experimental: The potential for opelconazole to inhibit CYP isoforms was tested in vitro in human liver microsomes. […] Preincubation of the human liver microsomes for periods of 0 min without NADPH and 30 min with NADPH, plus 30 min without NADPH were included to assess for a time-dependent inhibition effect. Two structurally diverse substrates (testosterone and midazolam) were tested to assess substrate-dependent inhibition.

CYP3A4 [2] = tested on: CYP3A4
Experimental: The potential for opelconazole to act as an inducer of CYP isoforms CYP1A2, CYP2B6 and CYP3A4 was assessed in vitro using an mRNA endpoint across three donors in cryopreserved human hepatocytes.
A cytotoxicity assessment using MTT was performed in one of the three donors used for the induction studies prior to dosing.

BCRP = molecular target: T1, BCRP (Homo sapiens, UniProt Q9UNQ0); experiment: Transporter inhibition; format: in vitro ADME
T1 construct: expressed in transfected cells
T1 sequence (Q9UNQ0 1-655): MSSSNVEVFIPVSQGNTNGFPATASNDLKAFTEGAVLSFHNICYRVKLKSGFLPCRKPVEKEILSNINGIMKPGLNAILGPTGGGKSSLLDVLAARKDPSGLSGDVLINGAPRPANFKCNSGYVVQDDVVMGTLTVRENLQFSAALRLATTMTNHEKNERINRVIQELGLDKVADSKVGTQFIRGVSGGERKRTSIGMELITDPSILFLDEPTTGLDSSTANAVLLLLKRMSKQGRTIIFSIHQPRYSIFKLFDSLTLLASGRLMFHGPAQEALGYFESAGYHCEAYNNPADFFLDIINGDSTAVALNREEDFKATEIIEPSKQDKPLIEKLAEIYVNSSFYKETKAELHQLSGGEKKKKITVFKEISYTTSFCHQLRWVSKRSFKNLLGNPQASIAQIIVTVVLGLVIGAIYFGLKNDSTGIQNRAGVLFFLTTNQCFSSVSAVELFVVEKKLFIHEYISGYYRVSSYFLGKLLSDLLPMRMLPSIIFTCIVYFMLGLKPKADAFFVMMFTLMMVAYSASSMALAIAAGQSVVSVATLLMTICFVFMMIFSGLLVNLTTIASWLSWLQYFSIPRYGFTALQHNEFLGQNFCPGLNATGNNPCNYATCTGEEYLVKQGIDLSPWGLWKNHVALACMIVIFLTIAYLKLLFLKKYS
Experimental: (§1) Human transporter protein interactions with opelconazole as a potential substrate and/or inhibitor were assessed for the following key carrier transporters: organic anion transporters, OAT1 and OAT3; organic cation transporters, OCT1 and OCT2; OATP1B1 and OATP1B3; multidrug and toxin extrusion, MATE-1 and MATE2-K; key ATP-binding cassette (ABC) transporters including P-gp, breast cancer resistance protein (BCRP) and bile salt export pump (BSEP). Two concentrations of opelconazole, 0.5 and 5 μM, were tested using MDCKII cells, human embryonic kidney 293 cells and BSEP-transfected sf9 membrane vesicles and then analysed by LC-tandem MS to determine transporter inhibition and whether opelconazole was a transporter substrate. The viability of experimental test systems was confirmed with controls and known probe substrates and probe inhibitors.

MATE2-K = molecular target: T2, MATE2-K (Homo sapiens, UniProt Q86VL8); experiment: Transporter inhibition; format: in vitro ADME
T2 construct: expressed in transfected cells
T2 sequence (Q86VL8 1-566 isoform Q86VL8-3): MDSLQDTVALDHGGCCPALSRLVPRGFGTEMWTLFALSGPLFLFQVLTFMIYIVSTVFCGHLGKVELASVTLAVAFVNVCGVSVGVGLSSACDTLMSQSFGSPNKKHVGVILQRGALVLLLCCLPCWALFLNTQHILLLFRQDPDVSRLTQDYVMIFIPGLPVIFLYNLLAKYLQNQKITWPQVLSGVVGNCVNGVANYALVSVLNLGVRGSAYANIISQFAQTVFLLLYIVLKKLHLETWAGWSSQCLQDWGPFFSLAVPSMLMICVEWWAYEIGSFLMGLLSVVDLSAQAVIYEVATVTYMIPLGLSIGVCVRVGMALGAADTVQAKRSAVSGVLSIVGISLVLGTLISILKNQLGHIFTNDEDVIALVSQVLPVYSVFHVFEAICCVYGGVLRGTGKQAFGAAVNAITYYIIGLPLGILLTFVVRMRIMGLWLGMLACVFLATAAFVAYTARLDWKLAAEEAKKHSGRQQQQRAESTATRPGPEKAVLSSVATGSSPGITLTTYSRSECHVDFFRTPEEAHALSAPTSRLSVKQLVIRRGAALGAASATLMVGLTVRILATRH
Experimental: as §1

OAT3 = molecular target: T3, OAT3 (Homo sapiens, UniProt Q8TCC7); experiment: Transporter inhibition; format: in vitro ADME; settings: 0.5 and 5 μM tested
T3 construct: expressed in transfected cells
T3 sequence (Q8TCC7 1-542): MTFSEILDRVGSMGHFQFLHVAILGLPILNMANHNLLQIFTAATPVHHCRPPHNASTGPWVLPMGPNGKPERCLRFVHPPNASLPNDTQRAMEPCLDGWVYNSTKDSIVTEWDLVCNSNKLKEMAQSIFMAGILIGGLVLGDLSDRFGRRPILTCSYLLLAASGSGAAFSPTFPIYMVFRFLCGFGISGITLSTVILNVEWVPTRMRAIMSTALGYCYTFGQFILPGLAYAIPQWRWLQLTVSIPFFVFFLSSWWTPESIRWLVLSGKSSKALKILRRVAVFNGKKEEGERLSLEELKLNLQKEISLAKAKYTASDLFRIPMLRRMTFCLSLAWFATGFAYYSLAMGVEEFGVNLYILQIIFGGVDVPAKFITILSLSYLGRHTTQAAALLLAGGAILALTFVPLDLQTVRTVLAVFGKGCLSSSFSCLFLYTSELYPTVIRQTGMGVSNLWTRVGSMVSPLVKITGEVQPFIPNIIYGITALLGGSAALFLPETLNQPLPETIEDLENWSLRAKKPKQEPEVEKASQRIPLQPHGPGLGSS
Experimental: as §1

OATP1B1 = molecular target: T4, OATP1B1 (Homo sapiens, UniProt Q9Y6L6); experiment: Transporter inhibition; format: in vitro ADME; settings: 0.5 and 5 μM tested
T4 construct: expressed in transfected cells
T4 sequence (Q9Y6L6 1-691): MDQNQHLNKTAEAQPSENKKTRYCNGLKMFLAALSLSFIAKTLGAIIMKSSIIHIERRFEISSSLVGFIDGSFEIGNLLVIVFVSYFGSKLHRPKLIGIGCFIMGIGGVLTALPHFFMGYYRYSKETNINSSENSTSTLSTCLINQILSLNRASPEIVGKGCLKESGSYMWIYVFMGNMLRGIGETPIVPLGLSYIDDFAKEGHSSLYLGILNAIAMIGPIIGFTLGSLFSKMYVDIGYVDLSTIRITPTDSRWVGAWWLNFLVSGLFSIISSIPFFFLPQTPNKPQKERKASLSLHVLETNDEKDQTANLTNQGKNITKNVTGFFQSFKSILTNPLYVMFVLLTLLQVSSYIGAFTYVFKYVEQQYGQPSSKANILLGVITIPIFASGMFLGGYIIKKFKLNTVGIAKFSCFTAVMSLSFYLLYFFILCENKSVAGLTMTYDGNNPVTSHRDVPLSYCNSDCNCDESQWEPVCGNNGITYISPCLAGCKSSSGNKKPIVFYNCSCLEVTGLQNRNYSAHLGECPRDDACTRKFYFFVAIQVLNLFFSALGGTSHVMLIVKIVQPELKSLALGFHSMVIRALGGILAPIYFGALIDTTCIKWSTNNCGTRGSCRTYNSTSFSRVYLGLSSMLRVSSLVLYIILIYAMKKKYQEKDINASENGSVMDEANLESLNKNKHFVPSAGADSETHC
Experimental: as §1

P-gp = molecular target: T5, P-gp (Homo sapiens, UniProt P08183); experiment: Transporter inhibition; format: in vitro ADME
T5 construct: expressed in transfected cells
T5 sequence (P08183 whole entry): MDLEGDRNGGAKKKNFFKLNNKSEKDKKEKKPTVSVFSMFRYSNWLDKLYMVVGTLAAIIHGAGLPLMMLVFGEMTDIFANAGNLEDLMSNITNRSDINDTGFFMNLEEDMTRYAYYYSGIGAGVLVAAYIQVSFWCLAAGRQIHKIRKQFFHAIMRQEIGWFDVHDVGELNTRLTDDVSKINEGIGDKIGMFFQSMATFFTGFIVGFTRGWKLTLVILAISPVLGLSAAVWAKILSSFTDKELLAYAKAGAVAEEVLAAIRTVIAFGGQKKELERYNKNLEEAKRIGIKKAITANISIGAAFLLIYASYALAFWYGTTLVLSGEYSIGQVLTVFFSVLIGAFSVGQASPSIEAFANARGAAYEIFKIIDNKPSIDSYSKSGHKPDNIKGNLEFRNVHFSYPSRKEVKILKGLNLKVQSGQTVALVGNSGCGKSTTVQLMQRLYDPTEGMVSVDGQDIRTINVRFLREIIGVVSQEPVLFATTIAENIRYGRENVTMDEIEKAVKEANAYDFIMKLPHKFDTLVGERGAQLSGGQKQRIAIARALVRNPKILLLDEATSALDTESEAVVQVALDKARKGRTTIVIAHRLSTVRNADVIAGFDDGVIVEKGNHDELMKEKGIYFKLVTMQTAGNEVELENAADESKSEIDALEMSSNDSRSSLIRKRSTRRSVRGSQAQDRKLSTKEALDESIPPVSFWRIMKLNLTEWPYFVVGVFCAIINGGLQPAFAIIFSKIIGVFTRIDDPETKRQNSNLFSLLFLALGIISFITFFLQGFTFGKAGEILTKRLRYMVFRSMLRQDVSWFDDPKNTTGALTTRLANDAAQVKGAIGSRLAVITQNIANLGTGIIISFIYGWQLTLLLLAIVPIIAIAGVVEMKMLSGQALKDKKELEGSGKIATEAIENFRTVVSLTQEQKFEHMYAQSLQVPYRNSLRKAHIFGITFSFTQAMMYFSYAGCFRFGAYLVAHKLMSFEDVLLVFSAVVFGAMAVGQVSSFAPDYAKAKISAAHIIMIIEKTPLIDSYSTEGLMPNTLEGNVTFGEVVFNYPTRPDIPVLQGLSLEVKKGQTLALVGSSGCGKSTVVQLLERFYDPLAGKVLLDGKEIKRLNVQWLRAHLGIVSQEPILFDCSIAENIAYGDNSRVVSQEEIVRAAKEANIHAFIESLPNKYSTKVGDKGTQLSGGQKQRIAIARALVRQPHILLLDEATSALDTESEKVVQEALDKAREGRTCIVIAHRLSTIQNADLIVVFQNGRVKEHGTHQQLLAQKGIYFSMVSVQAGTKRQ
Experimental: as §1

[3] = substrate midazolam, 30-min preincubation

CYP3A4 (Homo sapiens, UniProt P08684), sequence (P08684 whole entry, canonical isoform): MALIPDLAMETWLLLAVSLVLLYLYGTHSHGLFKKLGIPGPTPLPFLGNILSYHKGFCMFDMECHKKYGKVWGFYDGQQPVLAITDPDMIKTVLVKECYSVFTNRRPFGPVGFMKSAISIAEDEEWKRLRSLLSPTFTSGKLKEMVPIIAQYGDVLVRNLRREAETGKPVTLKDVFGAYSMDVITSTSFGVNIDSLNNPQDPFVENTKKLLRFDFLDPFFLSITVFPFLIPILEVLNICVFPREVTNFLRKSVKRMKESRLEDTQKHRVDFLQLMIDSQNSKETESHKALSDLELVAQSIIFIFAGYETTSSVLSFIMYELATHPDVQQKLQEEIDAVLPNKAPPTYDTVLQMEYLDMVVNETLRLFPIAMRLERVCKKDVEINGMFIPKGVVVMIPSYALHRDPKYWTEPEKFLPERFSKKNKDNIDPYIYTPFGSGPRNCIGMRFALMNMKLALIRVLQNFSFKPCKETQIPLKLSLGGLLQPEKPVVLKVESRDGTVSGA

Structure (SMILES): Cc1cc(N2CCN(c3ccc(C(=O)Nc4ccc(F)cc4)cc3)CC2)ccc1OC[C@@H]1CO[C@@](Cn2cncn2)(c2ccc(F)cc2F)C1 [opelconazole]
- IC50 (CYP3A4 [1]; [3]): ~150 nM
- IC50 (CYP3A4 [1]; substrate midazolam, without pre-incubation, 0.001–0.25 µM): 123 nM
- IC50 (CYP3A4 [1]; substrate testosterone, 30-min preincubations with or without NADPH): 150 nM
- IC50 (CYP3A4 [1]; substrate testosterone, without pre-incubation, 0.001–0.25 µM): > 250 nM
- IC50, CYP3A4 (CYP3A4 [1]; [3]): ~0.102 µg/mL (≈ 0.149 µM)
- time-dependent inhibition of CYP3A4 (CYP3A4 [1]; [3]): not evident
- CYP3A4 mRNA expression increase (CYP3A4 [2]; donor 1, only at 0.3 μM, 72 h): 2.17 fold
- CYP3A4 mRNA expression increase (CYP3A4 [2]; donors 2 and 3, any concentration (0.012–3 μM)): < 2 fold
- inhibition of BCRP relative to solvent control (BCRP; 0.5 μM opelconazole): 52%
- inhibition of BCRP relative to solvent control (BCRP; 5 μM opelconazole): 56%
- inhibition of MATE2-K relative to solvent control (MATE2-K; 0.5 μM opelconazole): 19%
- inhibition of MATE2-K relative to solvent control (MATE2-K; 5 μM opelconazole): 52%
- inhibitory interaction with OAT3 (OAT3): negligible inhibitory interactions
- inhibitory interaction with OATP1B1 (OATP1B1): negligible inhibitory interactions
- inhibitory interaction with P-gp (P-gp; 0.5 μM opelconazole): negligible inhibitory interactions
- inhibition of P-gp relative to solvent control (P-gp; 5 μM opelconazole): 52%
